Experiments:
Experiment in all cases: relative viability (nuclei count vs DMSO), 5 days (fraction); higher = more cells survive
LU99A = system: LU99A
How it was run: (§1)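 Lung cancer cell lines in 1536-well plates were dosed by pin tool the day after seeding, either with one drug alone or with a fixed anchor-drug dose plus five library-drug doses (not always all listed) in √10 steps. After 5 days, cells were fixed and their nuclei stained in one step (final 0.05% Triton X-100, 1% formaldehyde, 1 ug/ml Hoechst), then counted on 4× images. Relative viability is the nuclei count in treated wells divided by that in vehicle wells. Values are medians of duplicate plates.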

NCI-H1437 = system: NCI-H1437
How it was run: as §1

NCI-H460 = system: NCI-H460
How it was run: as §1

HCC-366 = system: HCC-366
How it was run: as §1

NCI-H1651 = system: NCI-H1651
How it was run: as §1

NCI-H358 = system: NCI-H358
How it was run: as §1

NCI-H1734 = system: NCI-H1734
How it was run: as §1

NCI-H1975 = system: NCI-H1975
How it was run: as §1

CAL-12T = system: CAL-12T
How it was run: as §1

NCI-H2085 = system: NCI-H2085
How it was run: as §1

NCI-H1793 = system: NCI-H1793
How it was run: as §1

NCI-H838 = system: NCI-H838
How it was run: as §1

NCI-H441 = system: NCI-H441
How it was run: as §1

NCI-H2342 = system: NCI-H2342
How it was run: as §1

NCI-H1355 = system: NCI-H1355
How it was run: as §1

LOU-NH91 = system: LOU-NH91
How it was run: as §1

BEN = system: BEN
How it was run: as §1

O=c1cc(N2CCOCC2)oc2c(-c3cccc4c3sc3ccccc34)cccc12 + NC(=O)Nc1cc(-c2cccc(F)c2)sc1C(=O)N[C@H]1CCCNC1 [AZD7762] (partner 0.2 µM)
relative viability (LU99A; first compound 0.01 µM): 0.37
relative viability (LU99A; first compound 0.03162 µM): 0.415
relative viability (LU99A; first compound 0.1 µM): 0.438
relative viability (LU99A; first compound 0.3162 µM): 0.314
relative viability (LU99A; first compound 1 µM): 0.384
relative viability (NCI-H1437; first compound 0.01 µM): 1.22
relative viability (NCI-H1437; first compound 0.03162 µM): 1.12
relative viability (NCI-H1437; first compound 0.1 µM): 1.12
relative viability (NCI-H1437; first compound 0.3162 µM): 1.1
relative viability (NCI-H1437; first compound 1 µM): 1.04
relative viability (NCI-H460; first compound 0.01 µM): 0.518
relative viability (NCI-H460; first compound 0.03162 µM): 0.622
relative viability (NCI-H460; first compound 0.1 µM): 0.451
relative viability (NCI-H460; first compound 0.3162 µM): 0.589
relative viability (NCI-H460; first compound 1 µM): 0.636
relative viability (HCC-366; first compound 0.01 µM): 0.247
relative viability (HCC-366; first compound 0.03162 µM): 0.286
relative viability (HCC-366; first compound 0.1 µM): 0.127
relative viability (HCC-366; first compound 0.3162 µM): 0.287
relative viability (HCC-366; first compound 1 µM): 0.288
relative viability (NCI-H1651; first compound 0.01 µM): 0.494
relative viability (NCI-H1651; first compound 0.03162 µM): 0.504
relative viability (NCI-H1651; first compound 0.1 µM): 0.454
relative viability (NCI-H1651; first compound 0.3162 µM): 0.44
relative viability (NCI-H1651; first compound 1 µM): 0.384
relative viability (NCI-H358; first compound 0.01 µM): 0.49
relative viability (NCI-H358; first compound 0.03162 µM): 0.517
relative viability (NCI-H358; first compound 0.1 µM): 0.354
relative viability (NCI-H358; first compound 0.3162 µM): 0.445
relative viability (NCI-H358; first compound 1 µM): 0.519
relative viability (NCI-H1734; first compound 0.01 µM): 0.604
relative viability (NCI-H1734; first compound 0.03162 µM): 0.568
relative viability (NCI-H1734; first compound 0.1 µM): 0.112
relative viability (NCI-H1734; first compound 0.3162 µM): 0.596
relative viability (NCI-H1734; first compound 1 µM): 0.494
relative viability (NCI-H1975; first compound 0.01 µM): 0.676
relative viability (NCI-H1975; first compound 0.03162 µM): 0.735
relative viability (NCI-H1975; first compound 0.1 µM): 0.554
relative viability (NCI-H1975; first compound 0.3162 µM): 0.808
relative viability (NCI-H1975; first compound 1 µM): 0.553
relative viability (CAL-12T; first compound 0.01 µM): 0.58
relative viability (CAL-12T; first compound 0.03162 µM): 0.541
relative viability (CAL-12T; first compound 0.1 µM): 0.852
relative viability (CAL-12T; first compound 0.3162 µM): 0.676
relative viability (CAL-12T; first compound 1 µM): 0.498
relative viability (NCI-H2085; first compound 0.01 µM): 1
relative viability (NCI-H2085; first compound 0.03162 µM): 1.02
relative viability (NCI-H2085; first compound 0.1 µM): 0.887
relative viability (NCI-H2085; first compound 0.3162 µM): 1.05
relative viability (NCI-H2085; first compound 1 µM): 1.01
relative viability (NCI-H1793; first compound 0.01 µM): 0.593
relative viability (NCI-H1793; first compound 0.03162 µM): 0.38
relative viability (NCI-H1793; first compound 0.1 µM): 0.233
relative viability (NCI-H1793; first compound 0.3162 µM): 0.505
relative viability (NCI-H1793; first compound 1 µM): 0.464
relative viability (NCI-H838; first compound 0.01 µM): 0.918
relative viability (NCI-H838; first compound 0.03162 µM): 0.963
relative viability (NCI-H838; first compound 0.1 µM): 0.934
relative viability (NCI-H838; first compound 0.3162 µM): 0.93
relative viability (NCI-H838; first compound 1 µM): 0.924
relative viability (NCI-H441; first compound 0.01 µM): 1.06
relative viability (NCI-H441; first compound 0.03162 µM): 1.03
relative viability (NCI-H441; first compound 0.1 µM): 1.09
relative viability (NCI-H441; first compound 0.3162 µM): 1.2
relative viability (NCI-H441; first compound 1 µM): 1.01
relative viability (NCI-H2342; first compound 0.01 µM): 0.566
relative viability (NCI-H2342; first compound 0.03162 µM): 0.483
relative viability (NCI-H2342; first compound 0.1 µM): 0.366
relative viability (NCI-H2342; first compound 0.3162 µM): 0.45
relative viability (NCI-H2342; first compound 1 µM): 0.433
relative viability (NCI-H1355; first compound 0.01 µM): 0.726
relative viability (NCI-H1355; first compound 0.03162 µM): 0.676
relative viability (NCI-H1355; first compound 0.1 µM): 0.255
relative viability (NCI-H1355; first compound 0.3162 µM): 0.903
relative viability (NCI-H1355; first compound 1 µM): 0.72
relative viability (LOU-NH91; first compound 0.01 µM): 0.755
relative viability (LOU-NH91; first compound 0.03162 µM): 0.785
relative viability (LOU-NH91; first compound 0.1 µM): 0.803
relative viability (LOU-NH91; first compound 0.3162 µM): 0.78
relative viability (LOU-NH91; first compound 1 µM): 0.751
relative viability (BEN; first compound 0.01 µM): 0.576
relative viability (BEN; first compound 0.03162 µM): 0.86
relative viability (BEN; first compound 0.1 µM): 0.289
relative viability (BEN; first compound 0.3162 µM): 0.735
relative viability (BEN; first compound 1 µM): 0.626

Source: the supplement of paper PMC10307832
